Assay results reported in PubChem BioAssay (NCI).
Several values for one entry are separate records, joined by “and”; a condition that tells them apart may be missing. Equal entries are not always repeated.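 Compound exposure: 48 hours, 5 concentrations, 96-well plates. GI50 = concentration required for 50% inhibition of growth. TGI: concentration producing complete growth inhibition.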 *1 amine or outer side, *2 acyl side, *3 side chain or, on linkers, in order; H or OH if unused. Where a SMILES comes first, the peptide text is derived from it. [ ]: non-standard residue; d: D form. The star is where a group is joined. ξ: configuration not given here. X15 = CCN(CC)c1ccc2cc(N*)c(=O)oc2c1; dIva = CC[C@@](C)(N)C(=O)O; X14 = O=C(OCCN[*:1])[*:2]; Aib = CC(C)(N)C(=O)O; ξP = O=C(O)C1CCCN1; βAla = NCCC(=O)O

Tests used:
Test in all cases: NCI anticancer screen, dose series, 48 h
[1] = test system: UACC-257 melanoma
[2] = test system: HL-60(TB) leukemia
[3] = test system: EKVX NSCLC
[4] = test system: K-562 leukemia
[5] = test system: U251 CNS
[6] = test system: LOX IMVI melanoma
[7] = test system: OVCAR-3 ovarian
[8] = test system: HCT-15 colon
[9] = test system: NCI-H23 lung
[10] = test system: NCI-H226 lung

Structure (SMILES)	GI50 [1] [µM]	TGI [1]	GI50 [2] [µM]	TGI [2]	GI50 [3] [µM]	TGI [3]	TGI [4] [µM]	GI50 [5] [µM]	TGI [5]	GI50 [6] [µM]	TGI [6] [µM]	GI50 [7] [µM]	TGI [7]	TGI [8] [µM]	GI50 [9] [µM]	TGI [9] [µM]	GI50 [10] [µM]	TGI [10]	GI50 [4] [µM]	GI50 [8] [µM]
Nc1nc(N)c(N=O)c(OCC2CCCCC2)n1	17.2	> 100 µM and 38.9 µM	10.7	53.8 µM and 58.9 µM	27	> 94.5 µM and 64.2 µM	> 100	13.9	> 100 µM and 52.5 µM	4.77	> 100	7.37	64.7 µM and 61.5 µM	> 100	9.71	> 100	6.65	> 100 µM and 46.5 µM		
CC(C)N1C(NNC(=O)c2cnccn2)=NS(=O)(=O)c2ccccc21	> 100	> 100 µM	> 100	> 100 µM	> 100	> 100 µM	> 100	> 100	> 100 µM	> 100	> 100	> 100	> 100 µM	> 100	> 100	> 100	> 100	> 100 µM	> 100	> 100
CCN(CC)c1ccc2cc(NC(=O)OCCNC(=O)CCNC(=O)[C@H](CC(C)C)NC(=O)C(C)(C)NC(=O)C(C)(C)NC(=O)[C@H](CC(C)C)NC(=O)CCNC(=O)C(C)(C)NC(=O)[C@H](CC(C)C)NC(=O)CCNC(=O)[C@@](C)(CC)NC(=O)[C@H](C)NC(=O)CCNC(=O)C(C)(C)NC(=O)[C@H](C)NC(=O)[C@@H]3CCCN3C(=O)[C@@](C)(CC)NC(=O)[C@H](Cc3ccccc3)NC(=O)C3CCCN3C(=O)C(C)(C)NC(=O)C3CCCN3C(=O)C(C)(C)NC(C)=O)c(=O)oc2c1 (stereo partly drawn) (Ac-[Aib][ξP][Aib][ξP]F[dIva]PA[Aib][βAla]A[dIva][βAla]L[Aib][βAla]L[Aib][Aib]L[βAla][X14]-X15)	0.00222	0.0065 µM	0.00316	0.011 µM	0.00421	0.0241 µM	0.0237	0.00317	0.0162 µM	0.00192	0.00384	0.00338	0.0139 µM	0.278	0.00347	0.014	0.00561	0.0348 µM	0.00417	0.135
CS/C(=N\c1nccs1)NC(=O)c1cccc(Cl)c1		> 100 µM		> 100 µM		> 100 µM	> 100		> 100 µM		> 100		> 100 µM	> 100		> 100		> 100 µM		
O=C(COc1cccc(/C=C2\COc3ccc(Cl)cc3C2=O)c1)c1ccc(Cl)cc1	18.5	33.4 µM	8.99	31.5 µM	12.5	25.8 µM	> 100	13.8	26.7 µM	3.2	13.2	7.71	19.8 µM	24.7	13.4	26.4	14.1	31.2 µM	2.67	12.2
Clc1nc(Cl)c(-c2ccccc2)c(Cl)n1		7.65 µM		4.77 µM		3.46 µM	> 35		10 µM		3.73		7.71 µM	5.01		12		5.76 µM		
CCCOc1nc(SCCC)nc2c1cnn2-c1ccccc1	> 100	> 100 µM	38	> 100 µM	39.1	> 100 µM	> 100	> 100	> 100 µM	> 100	> 100	> 100	> 100 µM	> 100	> 100	> 100	> 100	> 100 µM	> 100	> 100
Cc1ccc(Sc2ccc(C)cc2[N+](=O)[O-])c([N+](=O)[O-])c1		> 10 µM		> 100 µM		> 100 µM	> 100		> 100 µM		> 100		> 100 µM	> 100		> 100		> 100 µM		
C=C1CCC2C3(C)COC(c4ccccc4Br)OC3CCC2(C)C1C/C=C1/C(=O)OCC1OC(C)=O (stereo not drawn)	1.57	2.99 µM	0.708	2.98 µM	2.55	10.1 µM	4.4	1.22	2.46 µM	0.422	0.826	0.932	2.47 µM	2.25	1.59	3.17	1.64	3.42 µM	0.396	0.73
COc1cc2c3c(n(C)c(=O)c2cc1OC)-c1cc2c(cc1/C3=C\C(N)CN)OCO2 (stereo not drawn)	6.38	41.4 µM	8.69	> 100 µM	2.1	9.95 µM	> 71.5	0.371	2.42 µM	1.05	3.12	1.92	6.88 µM	16.6	1.84	5.58	1.89	> 22.4 µM	3.74	2.16
CCC(/C=C/c1ccccc1)=N\Nc1ccc(Cl)c(Cl)c1		> 100 µM		72.5 µM		> 100 µM	> 100		> 100 µM		> 100		> 100 µM	> 100		> 100		72.7 µM		
COc1cc(C2C3=C(COC3=O)Nc3cc4c(cc32)CCC4)cc2c1OCO2 (stereo not drawn)	1.13	63.3 µM	0.033	0.724 µM	0.486	43.3 µM	12.3	0.0452	4.61 µM	0.0496	12.1	0.0231	0.047 µM	> 62.1	0.0427	3.04	0.0391	1.6 µM	0.0375	0.0728
N.N.NCCCCCCN.O=C([O-])CC(=O)[O-].O=C([O-])CC(=O)[O-].[Pt+4].[Pt+4]	> 100	> 100 µM	23.7	> 100 µM	> 100	> 100 µM	> 100	47.7	> 100 µM	> 100	> 100	> 89.7	> 100 µM	> 100	57.3	> 100	> 56.7	> 100 µM	> 86.3	> 66.1
O=C(CCc1cc(-c2ccccc2)nc(=S)[nH]1)Nc1ccccc1[N+](=O)[O-]		> 100 µM		> 100 µM		> 100 µM	> 100		> 100 µM		> 100		> 100 µM	> 100		> 100		> 100 µM		
CCOc1ccccc1/C=N\N=C(\N)N/N=C/c1ccccc1OCC	4.37	> 100 µM	1.33	8.92 µM	4.59	> 100 µM	> 100	3.35	> 100 µM	4.68	> 100	1.69	4.48 µM	> 100	5.86	> 100	5.55	> 100 µM	0.707	1.46
c1ccc(CSc2nnc3c4ccccc4c4ccccc4c3n2)cc1		> 100 µM		> 100 µM		> 100 µM	> 100		> 100 µM		> 100		> 70.9 µM	> 100		> 100		> 100 µM		
CCCc1cc(=O)n2c(C(=O)Nc3ccccc3OC)c(C(=O)Nc3ccc(F)cc3)sc2n1	20.2	60.2 µM	37.4	> 160 µM	30.7	> 160 µM	33.1	5.88	21.5 µM	5.18	38.1	9.56	34.1 µM	> 160	37.1	> 160	0.802	6.96 µM	4.64	72
O=C(CCCSc1nc(-c2ccccc2)cc(-c2ccc(Cl)cc2)n1)NO	2.92	12.4 µM	2.35	9.26 µM	1.8	11.5 µM	26.1	1.66	12.7 µM	0.414	1.87	0.675	9.38 µM	13.5	2.44	10.6	3.12	17.1 µM	1.51	0.382
O=c1cc(N=Nc2ccc(O)cc2)[nH]c(=O)[nH]1		> 100 µM		> 100 µM		> 100 µM	> 100		> 100 µM		> 100		> 100 µM	> 100		> 100		> 100 µM		
Nc1cc(N)c2nc(-c3ccccc3)c(NCc3ccc(F)cc3)nc2c1	2.02	4.26 µM	3.85	> 100 µM	1.89	4.07 µM	> 100	1.6	3.16 µM	1.52	3.17	2.39	6.42 µM	19.1	2.38	4.6	22.4	47.7 µM	4.39	3.34
Cn1cc(-c2ccc(-c3cn(C)c4ccc(Cl)cc34)s2)c2cc(Cl)ccc21	> 100	> 100 µM	> 100	> 100 µM	> 100	> 100 µM	> 100	> 100	> 100 µM	> 100	> 100	> 100	> 100 µM	> 100	> 100	> 100	> 100	> 100 µM	> 100	> 100
O=C(c1cccnc1)c1cc(-c2ccccn2)c(=O)n2ccccc12	> 100	> 100 µM	> 100	> 100 µM	> 100	> 100 µM	> 100	> 100	> 100 µM	> 100	> 100	> 100	> 100 µM	> 100	> 100	> 100	> 100	> 100 µM	> 100	> 100
COc1ccc2c(c1)C(C)Cc1c(Cl)nc(C)nc1N2C (stereo not drawn)	13.1	37.8 µM	2.54	> 100 µM	3.01	30.7 µM	> 100	3.15	15.9 µM	3.12	23.9	1.4	4.17 µM	8.05	3.48	37.2	5.83	40.3 µM	0.713	1.33
COC(=O)C1=C(C(=O)OC)SC(=C(N=Nc2ccccc2)c2ccccc2)S1		> 100 µM		> 100 µM		> 100 µM	> 100		> 100 µM		> 100		> 100 µM	> 100		> 100		> 100 µM		
COc1cc(C2CC(c3ccc(N(C)C)cc3)=NN2C(C)=O)cc(OC)c1OC (stereo not drawn)	> 69.5	> 100 µM	7.94	> 25.1 µM	5.53	> 100 µM	> 100	1.65	> 100 µM	2.28	> 100	0.352	1.84 µM	> 100	4.33	> 67	6.46	> 100 µM	1.74	1
CCNCCNc1cc(C2CCCCC2)c(C#N)c2nc3ccccc3n12	2.34	4.38 µM	1.46	3.49 µM	2.18	6.84 µM	4.39	1.48	3.42 µM	0.568	2.08	1.7	3.29 µM	3.46	2.06	5.54	1.71	3.32 µM	1.35	1.69
O=C(N/N=C/c1cc([N+](=O)[O-])ccc1O)c1cccc2ccccc12	2.7	26.9 µM	2.27	6.02 µM	3.8	29.7 µM	> 100	2.46	64.1 µM	2.02	53.4	3.67	> 100 µM	> 100	4.68	> 100	2.45	11.5 µM	3.26	2.55
